Values of other authors, collected in patent US10052341B2, “Method for preparing an anthelmintic composition, anthelmintic composition, veterinary treatment method and anthelmintic treatment method” (OURO FINO SAUDE ANIMAL PARTICIPACOES SA, priority 2013, dated 2018).

Details: pH 5

Compound	Water-solubility
CCC[S+]([O-])c1ccc2[nH]c(NC(=O)OC)nc2c1 (centres unmarked) [albendazole sulfoxide]	67 µg/mL
CCCSc1ccc2nc(NC(=O)OC)[nH]c2c1 [albendazole]	0.53 µg/mL
